Source: US11980613B2, “Methods for reversing HIV latency using BAF complex modulating compounds” (priority 2018, dated 2024)

Test system: Bmi1-luciferase reporter cell line
Assay: Bmi1-luciferase reporter assay (screen for inhibitors of BAF-mediated transcriptional repression)
Assay type: cell-based, mouse
Conditions: grading in words
Experimental: Low passage mESCs from 129 mice (20 million, p10) were electroporated with 40 μg of a linearized construct consisting of 2 kb homology upstream of the Bmi1 locus, firefly luciferase at exon 1 of Bmi1 followed by loxP neo and a 6 kb 3′ homology arm with thymidine kinase outside the homology arms. The cells were plated on 10 gelatin treated plates (60 mm) of irradiated neo resistant MEFs and selected with G418 and ganciclovir for 5 days. 384 colonies were selected, trypsinized and replated in gelatin treated 24-well plates for expansion. The cells were split and DNA was isolated for digestions with EcoRI or BamHI. We confirmed the successful homologous recombination in 7 out 384 colonies using Southern blot analysis at both the 5′ (EcoRI) and 3′ (BamHI) end (see Table S2 of Marian et al., “Small Molecule Targeting of Specific BAF (mSWI/SNF) Complexes for HIV Latency Reversal,” Cell Chem. Biol. (Dec. 20, 2018) 25: 1443-1445). We deleted the neomycin cassette using transfected Cre recombinase and confirmed the excision at all clones using a second round of Southern blot analysis at the 3′ end (BamHI).
3. Compound Treatment: 10,000 cells in 30 μL ESC media were plated in white 384 well CellBind plates. The cells were cultured in a 37° C., 5% CO2 incubator for 24 h and 100 nL/well of 0.75 mM of positive control (Pubchem SID: 85814977) or 100 nL/well of 3.75 mM compound library (primary screen) was added via pin transfer into plates. There was no effect on assay readout at DMSO concentrations up to 0.5%. The cells were cultured in a 37° C., 5% CO2 incubator for 24 h for luciferase reporter assay and 18 h for qRT-PCR assay. 4. Luciferase assay: (PubChem AID 602393 primary, PubChem AID 651717 confirmatory.) The assay plates were removed from the incubator and equilibrates for 10 minutes to room temperature. Promega SteadyGlo® solution (10 μL/well) was added to each well of the assay plates. The assay plates were mixed at 1000 rpm for 15 seconds and then incubated for 10 minutes at room temperature. The luciferase levels were read on a Perkin Elmer Envision in Ultra Sensitive Luminescence mode. Signals remained stable up to 2 hours. 5. EqRT-PCR secondary screen (PubChem AID 743180, 743177, 743176) The qRTPCR screen was performed as published^54. In brief, 5,000 ES cells were plated on gelatin-coated 384-well tissue culture plates and cultured in a 37C, 5% CO2 incubator. 24 h later, hit compounds in 100 nL DMSO were treated at eight different doses. 18 h after compound treatment cells were washed two times with 100 μL PBS and all excess PBS was removed by centrifuging the plates upside down at 1000 rpm. The Ambion® Cells-to-Ct kit was used to generate cDNA. In brief, the cells were lysed in the plate in 10 μL lysis buffer containing DNase for 10 minutes and quenched with 1 μL lysis stop buffer. The lysate (2 μL) was added to 5 μL RT reaction buffer (2×), 2.5 μL nuclease-free water and 0.5 μL Reverse transcriptase (20×) and incubated at 37° C. for 60 minutes and 95° C. for 1 minute to generate 10 μL of cDNA. cDNA (1 μL) was used in each 5 μL qPCR reaction with Roche master mix and TaqMan probes (Applied Biosystems) for Bmi1-FAM (Mm00776122_gH), Ring1a-FAM (Mm01278940_m1/4331182), or Fgf4-FAM (Mm00438916_g1/4351372) alongside actin-VIC (4352341E) for a loading control. The qPCR was run accordingly: 95° C. for 10 minutes Then 55 cycles of: 95° C. for 10 seconds followed by 60° C. for 30 seconds. The fold increase in transcription was calculated using the ΔΔCT method^84. 6. Viability Assays (PubChem AID: 743188, 743189, 743190, 1053139, 1053140, 1053141)

CO[C@H]1CN(C)C(=O)c2cc(NC(=O)OC(C)C)ccc2OC[C@H](C)N(Cc2ccc(-c3ccccn3)cc2)C[C@@H]1C [BRD-K80443127]
activity in the Bmi1 luciferase reporter assays: high activity
